Test results as given in publication PMC3711124 (Biochemistry, 2008).
No end group written: not given here.

What was measured:
[1] = Circular dichroism of E5TM in DPC micelles; format: physicochemical; settings: CD, 5°C-95°C in 10°C increments, 15 mM DPC, pH 7.5, 114 μM peptide
AUC = target: the molecule itself; assay: AUC

Row | Molecule | thermal stability of α-helical structure [1] | stoichiometry N (AUC)
1 | Ac-KKKFLGLVAAMQLLLLLFLLLFFLVYWDHK [E5TM] | Only a small decrease in α-helical structure was observed | 
2 | KKKFLGLVAAMQLLLLLFLLLFFLVYWDHK (also: end-caps on C- and N-termini, not given here) [E5TM peptide (transmembrane domain of the bovine papillomavirus E5 protein, residues F9-H34, with fl] |  | 2
